Reference: the supplement of paper PMC8671470

Columns and labels:
Settings in all cases: 72 h
HL-60 [1] = assay: cell viability (% survival relative to DMSO control); higher = less cytotoxic
In short: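 A rescreen of the full library used HL-60 cells in RPMI 1640 with 10% FBS on 384-well plates, run in duplicate at five tenfold concentrations (1–10,000 nM). Each screen included DMSO or 100 nM of one of three metabolic inhibitors and ran 72 h at 37 °C, 5% CO2. CellTiter-Glo viability was scaled between DMSO and 10 μM proteasome-inhibitor wells. Any area under the curve comes from four-parameter log-logistic fits with drc and PharmacoGx.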

MV4-11 [2] = test system: MV4-11
In short: (§1)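 Fifteen myeloid leukaemia cell lines were seeded in RPMI 1640 at a density titrated to the linear growth range. Each line went into 384-well plates with compounds acoustically pre-printed at five tenfold doses from 1 to 10,000 nM, in duplicate, and was incubated for 72 h at 37 °C with 5% CO2. Luminescent ATP viability was normalised to vehicle and to a positive control at 10 µM. The IC50 came from four-parameter log-logistic dose–response fits.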

K-562 [3] = test system: K-562
In short: as §1

KU-812 [4] = test system: KU-812
In short: as §1

NOMO-1 [5] = test system: NOMO-1
In short: as §1

Mono-Mac-6 [6] = test system: Mono-Mac-6
In short: as §1

ML-2 = assay: cell viability (% survival relative to DMSO control, bortezomib = 0%); higher = less cytotoxic
In short: (§2)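 After 72 h at 37 °C with 5% CO2, cell viability in 384-well plates was measured by CellTiter-Glo luminescence. The plates held compounds pre-printed at 1, 10, 100, 1000 or 10000 nM in duplicate, and cells from 10 AML and 5 CML lines seeded at densities titrated to linear growth. Percent survival is the duplicate mean, normalised to vehicle as 100% and a 10 µM positive control as 0%.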

MV4-11 [7] = assay: as above
In short: as §2

HL-60 [8] = assay: as above
In short: as §2

MOLM-13 = assay: as above
In short: as §2

THP-1 = assay: as above
In short: as §2

SHI-1 = assay: as above
In short: as §2

K-562 [9] = assay: as above
In short: as §2

KU-812 [10] = assay: as above
In short: as §2

BV-173 = assay: as above
In short: as §2

HEL = assay: as above
In short: as §2

LAMA-84 = assay: as above
In short: as §2

NOMO-1 [11] = assay: as above
In short: as §2

KCL-22 = assay: as above
In short: as §2

Mono-Mac-6 [12] = assay: as above
In short: as §2

KG-1 = assay: as above
In short: as §2

O=c1oc2c(O)c(O)cc3c(=O)oc4c(O)c(O)cc1c4c23 [Benzoaric Acid]
cell viability [%], HL-60 [1]
Settings	0.001 µM	0.01 µM	0.1 µM	1 µM	10 µM
co-treatment: AZD3965 100 nM	98.61	96.4	101	99.21	99.13
co-treatment: DMSO vehicle	102.3	100.2	99.9	102	100
co-treatment: GSK2194069 100 nM	101	97.6	95.1	94.3	100
co-treatment: pictilisib 100 nM	106	104	101.4	99.2	96.3

Settings	IC50 (cell viability) [µM]
K-562 [3]	> 10
KU-812 [4]	> 10
MV4-11 [2]	> 10
Mono-Mac-6 [6]	> 10
NOMO-1 [5]	> 10

cell viability [%]
Settings	1 nM	10 nM	100 nM	1000 nM	10000 nM
BV-173	92.9	101	92.8	97.9	99.1
HEL	113	100	107	92.3	114
HL-60 [8]	94.6	106	90.7	92	102
K-562 [9]	111	93.6	94.9	87.7	90.1
KCL-22	100	111	99	97.8	124
KG-1	103	107	96.6	90.4	120
KU-812 [10]	98.4	97	95.1	92.4	110
LAMA-84	101	95.9	98.9	94.6	105
ML-2	94.7	101	95.9	95.1	108
MOLM-13	92.9	99.6	96	92.9	110
MV4-11 [7]	107	90.5	98.8	94.2	97.2
Mono-Mac-6 [12]	108	109	103	92.5	118
NOMO-1 [11]	102	104	104	99.9	102
SHI-1	97.7	106	99.7	94.3	120
THP-1	102	97.3	94.3	99.4	100

NC(=O)c1cccc(-c2cccc(OC(=O)NC3CCCCC3)c2)c1 [URB-597]
cell viability [%], HL-60 [1]
Settings	0.001 µM	0.01 µM	0.1 µM	1 µM	10 µM
co-treatment: AZD3965 100 nM	101	105	101	103	103
co-treatment: DMSO vehicle	100	104	99.6	100	102
co-treatment: GSK2194069 100 nM	103	113.65	98.1	101	104
co-treatment: pictilisib 100 nM	108	106.8	100	97.2	111

Settings	IC50 (cell viability) [µM]
K-562 [3]	> 10
KU-812 [4]	> 10
MV4-11 [2]	> 10
Mono-Mac-6 [6]	> 10
NOMO-1 [5]	> 10

cell viability [%]
Settings	1 nM	10 nM	100 nM	1000 nM	10000 nM
BV-173	91	104	105	104	115
HEL	102	104	103	110	95.2
HL-60 [8]	98.7	89.2	114	94.3	103
K-562 [9]	102	98	100	90.6	100
KCL-22	105	106	104	98.2	109
KG-1	102	103	102	92.8	101
KU-812 [10]	92.1	99.1	103	103	87.2
LAMA-84	99.8	96.9	99.6	98.3	96.1
ML-2	92.2	94.2	105	105	114
MOLM-13	99.9	93.7	105	93.8	117
MV4-11 [7]	96.4	96.5	109	99.6	89.5
Mono-Mac-6 [12]	102	99.6	97.2	117	123
NOMO-1 [11]	101	103	105	96.1	110
SHI-1	93.9	86.1	89.4	100	110
THP-1	98.5	93.8	105	99.1	102

O=C(O)Cn1nnc(-c2cc(N3CCC(Oc4cc(F)ccc4Br)CC3)no2)n1 [MK-8245]
cell viability [%], HL-60 [1]
Settings	0.001 µM	0.01 µM	0.1 µM	1 µM	10 µM
co-treatment: AZD3965 100 nM	94.6	102	96.7	94.6	108
co-treatment: DMSO vehicle	99.9	99.3	97.87	94.57	100
co-treatment: GSK2194069 100 nM	96.6	100	101	90.2	97.4
co-treatment: pictilisib 100 nM	95.7	96.7	104	90.7	103

Settings	IC50 (cell viability) [µM]
K-562 [3]	6.81
KU-812 [4]	> 10
MV4-11 [2]	> 10
Mono-Mac-6 [6]	> 10
NOMO-1 [5]	> 10

cell viability [%]
Settings	1 nM	10 nM	100 nM	1000 nM	10000 nM
BV-173	88.1	105	91.2	88.6	87.3
HEL	108	115	75.6	92.7	91.2
HL-60 [8]	105	93.2	108	50.7	94.3
K-562 [9]	97.7	122	90.5	88.2	41.2
KCL-22	105	118	95.5	97.7	60.1
KG-1	105	117	108	102	112
KU-812 [10]	99	107	93.4	88.2	94.7
LAMA-84	99.6	109	95.1	95.5	91.6
ML-2	109	111	102	105	96.7
MOLM-13	104	131	86.1	48.2	35.8
MV4-11 [7]	96.8	91.6	92.4	116	94.2
Mono-Mac-6 [12]	91.1	90.8	94.2	94.6	88
NOMO-1 [11]	95.8	103	96.9	96.9	90
SHI-1	99	119	103	97.8	90.8
THP-1	95.3	96.1	102	99	89.2

Oc1ccc(Nc2nc(-c3ccc(Cl)cc3)cs2)cc1 [SKI II]
cell viability [%], HL-60 [1]
Settings	0.001 µM	0.01 µM	0.1 µM	1 µM	10 µM
co-treatment: AZD3965 100 nM	101.4	103	104	104	15.7
co-treatment: DMSO vehicle	102	105	97.6	100	22.1
co-treatment: GSK2194069 100 nM	99	94.2	99.8	101	30.7
co-treatment: pictilisib 100 nM	96.5	102	101	88	3.95

Settings	IC50 (cell viability) [µM]
K-562 [3]	2.51
KU-812 [4]	2.9
MV4-11 [2]	3.2
Mono-Mac-6 [6]	4.12
NOMO-1 [5]	> 10

cell viability [%]
Settings	1 nM	10 nM	100 nM	1000 nM	10000 nM
BV-173	104	98.3	96.7	70.5	0.732
HEL	102	109	111	95.5	5.26
HL-60 [8]	88.9	110	97.7	77.7	11.2
K-562 [9]	99.5	107	107	75.2	36.8
KCL-22	94.5	107	109	92.1	25.7
KG-1	98	103	97.2	81.7	32.7
KU-812 [10]	95.5	101	106	90.8	20.6
LAMA-84	105	99.9	96.1	96.4	34.2
ML-2	93.8	97.2	99.3	89.7	44
MOLM-13	80	104	110	106	44.3
MV4-11 [7]	97.2	99.2	114	95.9	4.54
Mono-Mac-6 [12]	99.2	97.8	100	93.5	14.3
NOMO-1 [11]	97.3	104	104	99.3	66.1
SHI-1	94.9	97.8	99.7	96	53.3
THP-1	100	96.8	103	86.4	8.38
